The target in this assay is EZH2 (Homo sapiens (Human), UniProt Q15910). The experiment in a line: PRC2 enzyme assay on peptide substrates. It is filed as biochemical.
Setting [1] is: PRC2 enzyme assays on peptide substrates, 4 nM enzyme, 30 min preincubation at 25° C., read-out: EZH2 IC50.

Where two headings read alike, the source gives them in different places.

46 compounds from US9637472B2, “Substituted 6,5-fused bicyclic heteroaryl compounds” (Epizyme, Inc., priority 2011, dated 2017) can be followed below.

EZH2, sequence (Q15910 other isoform, or with tags, fused parts or gaps): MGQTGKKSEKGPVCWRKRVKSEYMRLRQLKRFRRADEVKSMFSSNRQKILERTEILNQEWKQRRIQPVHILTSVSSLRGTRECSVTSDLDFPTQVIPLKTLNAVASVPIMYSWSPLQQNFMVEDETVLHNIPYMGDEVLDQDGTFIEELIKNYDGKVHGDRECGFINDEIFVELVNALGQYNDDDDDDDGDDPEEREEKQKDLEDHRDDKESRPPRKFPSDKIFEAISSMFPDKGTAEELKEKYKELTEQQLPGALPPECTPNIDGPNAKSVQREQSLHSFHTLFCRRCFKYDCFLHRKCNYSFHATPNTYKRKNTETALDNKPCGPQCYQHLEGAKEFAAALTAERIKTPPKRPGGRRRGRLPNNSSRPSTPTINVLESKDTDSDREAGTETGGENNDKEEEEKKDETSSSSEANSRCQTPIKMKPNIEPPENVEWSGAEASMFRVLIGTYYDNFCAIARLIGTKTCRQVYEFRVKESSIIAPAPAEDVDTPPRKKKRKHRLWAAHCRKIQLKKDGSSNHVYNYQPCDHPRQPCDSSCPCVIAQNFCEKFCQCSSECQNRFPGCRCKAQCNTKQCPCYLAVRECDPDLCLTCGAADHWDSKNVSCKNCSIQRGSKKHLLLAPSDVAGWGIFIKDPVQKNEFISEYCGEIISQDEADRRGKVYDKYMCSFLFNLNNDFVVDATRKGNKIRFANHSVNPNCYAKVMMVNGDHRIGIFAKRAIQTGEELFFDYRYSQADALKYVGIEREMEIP
EZH2, sequence (O75530 whole entry partner): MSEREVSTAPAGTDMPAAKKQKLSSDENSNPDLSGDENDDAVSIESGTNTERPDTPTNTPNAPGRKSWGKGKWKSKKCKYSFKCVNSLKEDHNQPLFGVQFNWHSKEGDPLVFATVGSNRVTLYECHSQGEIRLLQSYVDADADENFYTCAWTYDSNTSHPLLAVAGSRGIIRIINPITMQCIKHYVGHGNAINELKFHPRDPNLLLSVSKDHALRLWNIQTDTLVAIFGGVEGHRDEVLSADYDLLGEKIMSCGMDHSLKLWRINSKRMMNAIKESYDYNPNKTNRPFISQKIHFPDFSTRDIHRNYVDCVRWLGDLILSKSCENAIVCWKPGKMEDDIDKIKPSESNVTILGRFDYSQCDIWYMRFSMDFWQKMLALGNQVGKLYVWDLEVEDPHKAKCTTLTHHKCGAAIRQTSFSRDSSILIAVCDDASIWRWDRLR
EZH2, sequence (Q15022 whole entry partner): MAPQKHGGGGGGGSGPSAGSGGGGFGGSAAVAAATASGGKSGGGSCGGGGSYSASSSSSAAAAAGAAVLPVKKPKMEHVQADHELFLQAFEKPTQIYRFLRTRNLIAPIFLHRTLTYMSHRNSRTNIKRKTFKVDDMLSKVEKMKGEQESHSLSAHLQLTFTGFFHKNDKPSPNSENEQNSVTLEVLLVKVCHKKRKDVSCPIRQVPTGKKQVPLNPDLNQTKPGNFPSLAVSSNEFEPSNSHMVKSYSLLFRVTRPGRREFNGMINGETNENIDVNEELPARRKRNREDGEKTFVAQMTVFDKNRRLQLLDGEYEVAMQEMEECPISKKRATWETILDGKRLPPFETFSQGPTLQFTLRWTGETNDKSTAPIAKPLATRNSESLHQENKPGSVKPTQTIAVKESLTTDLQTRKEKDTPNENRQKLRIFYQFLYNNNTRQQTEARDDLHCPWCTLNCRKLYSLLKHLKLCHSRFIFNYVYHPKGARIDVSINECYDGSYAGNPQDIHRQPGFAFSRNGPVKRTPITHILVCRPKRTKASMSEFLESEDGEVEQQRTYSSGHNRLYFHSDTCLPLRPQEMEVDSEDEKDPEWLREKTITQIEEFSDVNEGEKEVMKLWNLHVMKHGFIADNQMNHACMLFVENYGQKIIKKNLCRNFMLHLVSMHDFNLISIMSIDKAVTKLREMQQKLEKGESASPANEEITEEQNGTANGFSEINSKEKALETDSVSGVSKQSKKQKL
EZH2, sequence (Q09028 whole entry partner): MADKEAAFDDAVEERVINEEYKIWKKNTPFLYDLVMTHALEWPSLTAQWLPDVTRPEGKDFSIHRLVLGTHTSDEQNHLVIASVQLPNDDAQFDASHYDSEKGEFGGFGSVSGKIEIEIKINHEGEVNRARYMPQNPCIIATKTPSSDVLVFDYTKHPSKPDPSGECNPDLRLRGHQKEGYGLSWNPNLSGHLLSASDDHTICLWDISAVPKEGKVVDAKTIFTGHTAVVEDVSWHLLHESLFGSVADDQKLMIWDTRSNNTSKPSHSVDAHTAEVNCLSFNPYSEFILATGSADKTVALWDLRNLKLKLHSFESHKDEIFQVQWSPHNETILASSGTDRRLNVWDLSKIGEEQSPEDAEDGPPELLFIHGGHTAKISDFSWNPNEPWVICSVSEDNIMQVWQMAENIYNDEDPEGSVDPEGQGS

Consider `Cc1cc(C)c(CNC(=O)c2cc(C3=CCN(C4CCN(S(C)(=O)=O)CC4)CC3)nc3c2cnn3C(C)C)c(=O)[nH]1` [Compound B-40], for which, under setting [1], the IC50 (usually the concentration at which inhibition is half-maximal) is 300 to 1000 nM.

Regarding `Cc1cc(C)c(CNC(=O)c2cc(N3CCC(N4CCNCC4)CC3)nc3c2cnn3C(C)C)c(=O)[nH]1` [Compound B-44], under setting [1], the IC50 lay in the range of 300 to 1000 nM. Same read-out and setting: with `Cc1cc(C)c(CNC(=O)c2cc(C3=CCN(C(=O)[C@H](C)N)CC3)nc3c2cnn3C(C)C)c(=O)[nH]1` [Compound B-46] the figure was 300 to 1000 nM; with `Cc1cc(C)c(CNC(=O)c2cc(C3CC(C)(C)NC(C)(C)C3)nc3c2cnn3C2COC2)c(=O)[nH]1` [Compound B-47], 300 to 1000 nM; with `Cc1cc(C)c(CNC(=O)c2cc(N3CCC(C4CCNCC4)CC3)nc3c2cnn3C(C)C)c(=O)[nH]1` [Compound B-48], 300 to 1000 nM.

With `Cc1cc(C)c(CNC(=O)c2cc(C3=CCN(C(=O)CCN)CC3)nc3c2cnn3C(C)C)c(=O)[nH]1` [Compound B-49], the IC50 under setting [1] is 300 to 1000 nM. For `Cc1cc(C)c(CNC(=O)c2cc(C3=CCN(C(=O)CN(C)C)CC3)nc3c2cnn3C(C)C)c(=O)[nH]1` [Compound B-53], the IC50 under setting [1] was 300 to 1000 nM.

Take `Cc1cc(C)c(CNC(=O)c2cc(C3CCN(C4CCN(CCS(C)(=O)=O)CC4)CC3)nc3c2cnn3C(C)C)c(=O)[nH]1` [Compound B-55]: the IC50 under setting [1] lay within 300 to 1000 nM.

In the case of `Cc1cc(C)c(CNC(=O)c2cc(C3CCN(C(=O)CN(C)C)CC3)nc3c2cnn3C(C)C)c(=O)[nH]1` [Compound B-57], the IC50 under setting [1] is 300 to 1000 nM. Still for that read-out and setting: the figure for `Cc1cc(C)c(CNC(=O)c2cc(C3=CCNCC3)nc3c2cnn3C(C)C)c(=O)[nH]1` [Compound B-60] is 300 to 1000 nM. Still for that read-out and setting: the figure for `Cc1cc(C)c(CNC(=O)c2cc(C3CCN(C(=O)CCN)CC3)nc3c2cnn3C(C)C)c(=O)[nH]1` [Compound B-62] is 300 to 1000 nM; for `Cc1cc(C)c(CNC(=O)c2cc(C3=CCN(C(=O)CN)CC3)nc3c2cnn3C(C)C)c(=O)[nH]1` [Compound B-63] it is 300 to 1000 nM; for `CC(=O)N1CC=C(c2cc(C(=O)NCc3c(C)cc(C)[nH]c3=O)c3cnn(C(C)C)c3n2)CC1` [Compound B-64] it is 300 to 1000 nM. Same read-out and setting: with `Cc1cc(C)c(CNC(=O)c2cc(C3=CCN(C(=O)[C@@H](N)CO)CC3)nc3c2cnn3C(C)C)c(=O)[nH]1` [Compound B-66] the figure was 300 to 1000 nM; with `Cc1cc(C)c(CNC(=O)c2cc(C3=CCN(C(=O)C(O)CN)CC3)nc3c2cnn3C(C)C)c(=O)[nH]1` (stereo not shown) [Compound B-70], 300 to 1000 nM; with `Cc1cc(C)c(CNC(=O)c2cc(C3CCN(CCC(F)(F)F)CC3)nc3c2cnn3C(C)C)c(=O)[nH]1` [Compound B-71], 300 to 1000 nM. `Cc1cc(C)c(CNC(=O)c2cc(C3CCN(C)CC3)nc3c2cnn3C(C)C)c(=O)[nH]1` [Compound B-73]: under setting [1], the IC50 was in the range of 300 to 1000 nM. In turn, `Cc1cc(C)c(CNC(=O)c2cc(C3=CCN(C)CC3)nc3c2cnn3C(C)C)c(=O)[nH]1` [Compound B-75] showed an IC50 of 300 to 1000 nM. As for `CNCC(=O)N1CCC(c2cc(C(=O)NCc3c(C)cc(C)[nH]c3=O)c3cnn(C(C)C)c3n2)CC1` [Compound B-76], the IC50 under setting [1] was 300 to 1000 nM. In the case of `Cc1cc(C)c(CNC(=O)c2cc(C3CCN(C(=O)C4CNC4)CC3)nc3c2cnn3C(C)C)c(=O)[nH]1` [Compound B-77], under setting [1], the IC50 was 300 to 1000 nM. Turning to `CC(=O)N1CCC(c2cc(C(=O)NCc3c(C)cc(C)[nH]c3=O)c3cnn(C(C)C)c3n2)CC1` [Compound B-78], the IC50 under setting [1] lay within 300 to 1000 nM.

For the compound `Cc1cc(C)c(CNC(=O)c2cc(C3CCN(C(=O)CN)CC3)nc3c2cnn3C(C)C)c(=O)[nH]1` [Compound B-79], the IC50 under setting [1] was 300 to 1000 nM. On the same count and under the same terms, with `Cc1cc(C)c(CNC(=O)c2cc(C3=CCOCC3)nc3c2cnn3C(C)C)c(=O)[nH]1` [Compound B-80] the figure was 300 to 1000 nM. Still for that read-out and setting: with `Cc1cc(C)c(CNC(=O)c2cc(C3=CCCCC3)nc3c2cnn3C(C)C)c(=O)[nH]1` [Compound B-81] the figure was 300 to 1000 nM; with `Cc1cc(C)c(CNC(=O)c2cc(C3=CCN(C(=O)CO)CC3)nc3c2cnn3C(C)C)c(=O)[nH]1` [Compound B-82], 300 to 1000 nM. Consider `Cc1cc(C)c(CNC(=O)c2cc(C3CCN(CCS(C)(=O)=O)CC3)nc3c2cnn3C(C)C)c(=O)[nH]1` [Compound B-83], for which the IC50 under setting [1] lay within 300 to 1000 nM. For `Cc1cc(C)c(CNC(=O)c2cc(C3=CCN(CCC(F)(F)F)CC3)nc3c2cnn3C(C)C)c(=O)[nH]1` [Compound B-84], under setting [1], the IC50 is 300 to 1000 nM. Regarding `Cc1cc(C)c(CNC(=O)c2cc(C3CCN(C(=O)CO)CC3)nc3c2cnn3C(C)C)c(=O)[nH]1` [Compound B-85], under setting [1], the half-inhibitory concentration (IC50) was 300 to 1000 nM. Consider `Cc1cc(C)c(CNC(=O)c2cc(N3CCC(N(C)C)CC3)nc3c2cnn3C(C)C)c(=O)[nH]1` [Compound B-86], for which the IC50 under setting [1] was 1000 to 3000 nM. Take `Cc1cc(C)c(CNC(=O)c2cc(N3CCC(N4CCOCC4)CC3)nc3c2cnn3C(C)C)c(=O)[nH]1` [Compound B-87]: under setting [1], the IC50 lay within 1000 to 3000 nM.

Regarding `Cc1cc(C)c(CNC(=O)c2cc(Br)nc3c2cnn3C(C)C)c(=O)[nH]1` [Compound B-88], under setting [1], the IC50 fell in the range of 1000 to 3000 nM. In the case of `Cc1cc(C)c(CNC(=O)c2cc(C3=CCN(CCS(C)(=O)=O)CC3)nc3c2cnn3C(C)C)c(=O)[nH]1` [Compound B-89], the IC50 under setting [1] is 1000 to 3000 nM. Regarding `Cc1cc(C)c(CNC(=O)c2cc(N(C)CCCN(C)C)nc3c2cnn3C(C)C)c(=O)[nH]1` [Compound B-91], under setting [1], the IC50 lay within 1000 to 3000 nM. On the same count and under the same terms, with `Cc1cc(C)c(CNC(=O)c2cc(N3CCNCC3)nc3c2cnn3C(C)C)c(=O)[nH]1` [Compound B-92] the figure was 1000 to 3000 nM. The same measure, in the same setting: with `C=C(C)c1cc(C(=O)NCc2c(C)cc(C)[nH]c2=O)c2cnn(C(C)C)c2n1` [Compound B-93] the figure was 1000 to 3000 nM; with `Cc1cc(C)c(CNC(=O)c2cc(N3CCC(C4CCN(C)CC4)CC3)nc3c2cnn3C(C)C)c(=O)[nH]1` [Compound B-94], 1000 to 3000 nM.

With `Cc1cc(C)c(CNC(=O)c2cc(N3CCC(=O)CC3)nc3c2cnn3C(C)C)c(=O)[nH]1` [Compound B-95], under setting [1], the 50% inhibitory concentration (IC50) fell in the range of 1000 to 3000 nM. Same read-out and setting: with `Cc1cc(C)c(CNC(=O)c2cc(C3CCN(C(=O)C(O)CN)CC3)nc3c2cnn3C(C)C)c(=O)[nH]1` (stereo not shown) [Compound B-96] the figure was 1000 to 3000 nM; with `C=Cc1cc(C(=O)NCc2c(C)cc(C)[nH]c2=O)c2cnn(C(C)C)c2n1` [Compound B-97], 1000 to 3000 nM.

Turning to `Cc1cc(C)c(CNC(=O)c2cc(N3CCOCC3)nc3c2cnn3C(C)C)c(=O)[nH]1` [Compound B-98], the IC50 under setting [1] lay within 1000 to 3000 nM.

As for `Cc1cc(C)c(CNC(=O)c2cc(C3=CCN(S(C)(=O)=O)CC3)nc3c2cnn3C(C)C)c(=O)[nH]1` [Compound B-99], the IC50 under setting [1] was 1000 to 3000 nM. For `Cc1cc(C)c(CNC(=O)c2cc(C3CCN(C(=O)[C@@H](N)CO)CC3)nc3c2cnn3C(C)C)c(=O)[nH]1` [Compound B-100], the IC50 under setting [1] was 1000 to 3000 nM. Still for that read-out and setting: the figure for `Cc1cc(C)c(CNC(=O)c2cc(N3CCC(N4CCN(S(C)(=O)=O)CC4)CC3)nc3c2cnn3C(C)C)c(=O)[nH]1` [Compound B-101] is 1000 to 3000 nM; for `Cc1cc(C)c(CNC(=O)c2cc(N3CCC(N4CCN(CCS(C)(=O)=O)CC4)CC3)nc3c2cnn3C(C)C)c(=O)[nH]1` [Compound B-102] it is 1000 to 3000 nM; for `Cc1cc(C)c(CNC(=O)c2cc(C3=CC(C)(C)NC(C)(C)C3)nc3c2cnn3C2C=CCCC2)c(=O)[nH]1` (stereo not shown) [Compound B-103] it is 1000 to 3000 nM. On the same count and under the same terms, the figure for `Cc1cc(C)c(CNC(=O)c2cc(OC(C)C)nc3c2cnn3C(C)C)c(=O)[nH]1` [Compound B-104] is 1000 to 3000 nM.
